# Assay results published in PMC5564531, “Evaluation of radiofluorinated carboximidamides as potential IDO-targeted PET tracers for cancer imaging” (Oncotarget, 2017).
# Key:
# [1] = tested on: Hela, PANC02, HCT116, and 4T1 cells; test: HeLa cell uptake of radioligands; assay type: cell-based
# Experimental: HeLa cells were seeded in a 24 well culture plate at a density of 2 × 10^4 per well in 400 μL culture media w/ FBS (n=3). After overnight incubation (16 h), human IFN-γ (25ng/well, 50 ng/mL final concentration) in 100 μL DMEM with FBS were added into cells. The cells were rinsed with phosphate-buffered saline (PBS), 500 μL of Earle's Minimum Essential Medium (EMEM) (ATCC 30-2003), and 10 % fetal bovine serum was added to the culture wells. […] At each given time point, the cell supernatants were discarded and cells were washed 3 times with PBS (0.5 mL).
# [2] = molecular target: T1, Human IDO (Homo sapiens, UniProt P14902); test: IDO enzyme inhibition assay (kynurenine formation, absorbance 492 nm); assay type: biochemical; settings: recombinant human IDO; mean of n ≥ 3, ± SD
# T1 construct: purchased Enzo Life Sciences (enzolifesciences.com) ALX-201-333-C050
# Experimental: (§1) The percent inhibition at individual concentrations was determined and the average values of duplicates were obtained. The data was processed using nonlinear regression to generate IC50 values (Prism Graphpad).
# [3] = molecular target: T2, IDO1 in IFN-γ stimulated HeLa cells (Homo sapiens, UniProt P14902); test: IDO HeLa cells assay (IFN-γ induced IDO activity, kynurenine in supernatant); assay type: cell-based; settings: IFN-γ 50 ng/mL, 48 h incubation, read-out: Inhibition of IFN-γ induced IDO activity in HeLa cells (IC50)
# T2 construct: native IDO1 in HeLa cells; endogenous in cells; host or cells: HeLa cells stimulated with human IFN-γ
# Experimental: as §1
# [4] = tested on: IDO1; parameters: method as in PMID 20197554, PMID 20124451; settings: Phase I dose-escalation trial, generally well-tolerated doses; cited from earlier work
# [5] = tested on: IDO1; parameters: method as in PMID 19507862; settings: in both biochemical and cellular assays; cited from earlier work
# [6] = rapid clearance rate; species and reference not given; cited from earlier work
# [7] = In vitro stability in mouse serum by radio-TLC; assay type: in vitro ADME; settings: 37°C, 3 h
# Experimental: Two-hundred microliter samples were collected at 3 h and analyzed by radio-TLC.
# [8] = Lipophilicity, shake-flask method (n-octanol/PBS pH 7.4); assay type: physicochemical; settings: n-octanol/buffer pH 7.4, n=3
# Experimental: [^18F]IDO49 (2-30 kBq in 30μL of water) was added to a two-layer system of n-octanol (500 μL) and 0.1 M phosphate buffered saline (PBS) pH 7.4 (500 μL) in an Eppendorf vial. The vessel was vortexed for 3min and then centrifuged at 10,000 rpm for 2 min. An aliquot of each layer (100 μL) was assessed for radioactivity in a wipe counter. The partition coefficient (logD7.4) was calculated as the decimal logarithm of the ratio between the counted radioactivity in the n-octanol layer and the counted radioactivity in the aqueous layer (count of n-octanol sample – count of background) / (count of PBS sample – count of background). CLogP (calculated LogP) values were determined using CHEMBIODRAW ULTRA 12.0 software (Cambridge soft. Perkin-Elmer, Waltham, MA, USA).
# [9] = tested on: Hela tumor xenografts; test: MicroPET imaging of HeLa tumor xenografts with rHu IFN-γ treatment; assay type: in vivo, mouse; settings: 60 min postinjection, IFN-γ treated HeLa tumor bearing mice, p < 0.05
# Experimental: Female athymic C57BL/6 nude mice (4-6 weeks old) were ordered from Charles River Laboratories (Stone Ridge, NY, U.S.A.) and housed in a temperature and humidity controlled room. After 7 to 14 days of acclimatization, a total of 5 ×10^6 Hela cells were inoculated subcutaneously in 200 μL serum-free medium into the right flank of hind leg. Once tumors reached an appropriate size (3-4 mm in diameter) the mice were randomized into 5 groups (4/group). Then the mice in each group were randomized into two subgroups (rHu IFN- γ treatment or no rHu IFN- γ treatment). All the rHu IFN- γ treatment mice were injected i.p. of 1.5×10^5 U rHu IFN- γ /mouse/day. Group one mice were anesthetized by gas inhalation (2% vol/vol isoflurane in oxygen) 24 h later. Then the mice were euthanized and tumor tissues were dissected for further IDO1 western blotting and IHC. The same operation was repeated at 48h, 72h, 96h and 120h points.
# In order to evaluate the in vivo imaging performance of [^18F]IDO49 to IDO1 tumors, microPET imaging was performed on nude mice bearing Hela tumor xenografts with and without rHu IFN- γ treatment treatment using the Inveon small-animal PET/CT scanner (Siemens). Anesthesia was induced with 4− 5% isoflurane and maintained with 1− 3% isofluorane delivered with a mixed air/oxygen through a closed nose cone throughout the PET imaging session. […]
# [10] = molecular target: IDO1 in Hela cells (Homo sapiens, UniProt P14902); test: Competitive cell-binding assay of [18F]IDO49 on IFN-γ treated HeLa cells; settings: inhibitors 1-10000 nM, 30 min incubation
# Sequence of IDO1 in Hela cells (P14902 whole entry): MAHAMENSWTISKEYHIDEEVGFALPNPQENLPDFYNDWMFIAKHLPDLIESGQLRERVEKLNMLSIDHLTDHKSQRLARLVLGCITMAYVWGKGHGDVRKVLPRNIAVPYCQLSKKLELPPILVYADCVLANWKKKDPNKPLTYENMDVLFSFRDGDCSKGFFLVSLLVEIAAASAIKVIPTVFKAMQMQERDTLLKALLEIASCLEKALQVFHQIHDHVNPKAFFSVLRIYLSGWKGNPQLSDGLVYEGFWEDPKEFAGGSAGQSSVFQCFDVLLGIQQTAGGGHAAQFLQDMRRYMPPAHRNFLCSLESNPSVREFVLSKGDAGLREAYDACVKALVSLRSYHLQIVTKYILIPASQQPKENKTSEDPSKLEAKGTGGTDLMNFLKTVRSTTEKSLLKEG
# T2 sequence (P14902 whole entry): as above
# T1 sequence (P14902 whole entry): as above
structure (smiles),measurement,setting,value
"Cn1cc(C[C@H](N)C(=O)O)c2ccccc21 [1-L-MT, reference compound]",effect on uptake of [18F]IDO5L by HeLa at 120 min,"[1]; 1000 μM 1-L-MT, n=4",strong inhibition
"ON=C(Nc1ccc(F)c(Cl)c1)c1nonc1NCCF [IDO49, N-(3-chloro-4-fluorophenyl)-4-((2-fluoroethyl)amino)-N'-hydroxy-1,2,5-oxadiazole-3-carboximidamide]",IC50,[2],95.5 ± 10.4 nM
same,IC50,[3],11.9 nM
NS(=O)(=O)NCCNc1nonc1C(=NO)Nc1ccc(F)c(Br)c1 [INCB024360],inhibition of IDO1 activity,[4],greater than 90%
same,t1/2 (clearance rate),[6],< 30 min
Nc1nonc1/C(=N/O)Nc1ccc([18F])c(Cl)c1 [[^18F]IDO5L],time of peak cellular uptake,"[1]; Hela, PANC02, HCT116 and 4T1 cells, assayed at 30, 60, 120 mins, n=3",60 min
same,radioactivity in the intact radioligand,[7],> 95%
same,logD7.4,[8],2.13 ± 0.11
ON=C(Nc1ccc(F)c(Cl)c1)c1nonc1NCC[18F] [[^18F]IDO49],"tumor to muscle (T/M) uptake ratio, peak",[9],2.29 ± 0.05
same,radioactivity in the intact radioligand,[7],> 95%
same,[18F]IDO49 uptake in Hela cells when co-incubated with NLG919 and INCB024360,[10],decreased in a dose-dependent manner
same,logD,"[8]; n-octanol/PBS, read-out: logD7.4",1.37 ± 0.02
